This is an account of results in patent publication US9757350B2, “Small molecule inhibitors of replication protein A that also act synergistically with cisplatin” (Indiana University Research and Technology Corp., priority 2010, dated 2017).

The term pIC50 denotes the negative decadic logarithm of the IC50, by convention in mol/L.

pIC50: −log10 of the molar value.

Common to all, as to format: cell-based
One test relates to H460 cells. Nature of the test: Crystal violet cell viability assay, H460. On the procedure: Referring now to FIG. 11A. Gel showing effect of MCI13E on DNA-RPA binding. […] Cytotoxicity was analyzed via crystal violet analysis as described in “methods” 48 hours following MCI13E treatment. Data represent the average and standard deviation of four replicate experiments with each replicate containing triplicate determinations and the circles represent data from H460 cells and squares A549 cells. Referring now to FIG. 11C. Graph of MCI13E induced death via apoptosis in NSCLC cell lines. Cell were treated with the indicated concentrations of MCI13E for 48 hours and analyzed for the induction of apoptosis via Annexin V/PI staining Referring now to FIG. 11D. Graph of cell survival as a function of [MCI1EC]. Percent survival was calculated for each cell line using untreated cells as a control. Data presented are the average and standard deviation from four replicate experiments. Experiments were performed in non-small cell lung cancer (NSCLC) cell lines A549 (squares), an adenocarcinoma, and the large cell carcinoma H460 cell line (circles).
Cell Viability Assays—A crystal violet cell viability assay was performed to determine cytotoxicity of SMI. Lung cancer cell lines, A549 and H460, were plated in 24-well dishes at 5×10^4 total cells. Forty-eight hours after plating, the cells were treated for […] with variable concentrations of SMIs. The media was aspirated, cells washed with 500 μl of PBS/EDTA and stained for 10 minutes with crystal violet solution (50% Ethanol, 0.75% crystal violet). Stained cells were resuspended in 500 μl DMSO containing 1% SDS and absorbance was measured at 590 nm in a SpectraMax M5 plate reader (Molecular Devices, Sunnyvale, Calif.) and analyzed using SoftMax Pro 5.2. Percent viability is taken as an absorbance percentage against control untreated cells. Values plotted represent four separate plate replicates and each plate replicate contained three assay replicates per plate.

For another test, the system named is p53. In words: Western blot of p53 serine-15 phosphorylation. The conditions noted are these: A549, western blot. On the procedure: Real-Time PCR—A549 cells were plated in 10 cm dishes at 1.5×10^6, allowed to adhere, and treated for 24-48 hours with cisplatin or SMIs (5 μM). Referring now to FIG. 16B, Western blot of cells treated sequentially. For sequential treatment, A549 cells were exposed to cisplatin for 24 hours followed by the addition of SMIs for another 24 hours as above. Referring now to FIG. 16A, A549 cells were treated sequentially or concurrently with cisplatin (5 μM) and MCI13E or MCI13F for 24 total hours. Lysates were probed for p53-ser15-phosphorylation or phosphorylated-ATM. GAPDH was probed as a loading control. Concurrently treated cells were incubated simultaneously with both cisplatin and MCIs for 24 hours. RNA was extracted using RNeasy minikit (Qiagen, Germantown, Md.) per manufacturer's protocol. cDNA was generated using Applied Biosystem's (ABI) High Capacity RNA-to-cDNA kit. Validated gene primer/probe sets, also from ABI, were used for Quantitative Real Time-PCR. ABI's ΔΔCT Relative Quantification methodology was used for the analyses (applied Biosystems). Data were normalized to the housekeeping gene GAPDH and calibrated to the mock treated samples. Results presented are the average of two separate cell treatments/RNA isolations with duplicate Taqman Assays per RNA sample set. […]

Another test relates to A549 cells. Nature of the test: Combination index study with cisplatin (Chou-Talalay), crystal violet. As to conditions: for Interaction with cisplatin, sequential treatment: A549, cisplatin 24 h, then SMI 24 h. The method, then: Synergy with cisplatin—Analyses thus far indicate that inhibition of RPA is effective in eliciting effects consistent with inhibition of RPAs role in cell cycle progression and DNA replication. To assess if SMI treatment impacts RPAs role in DNA repair, how MCI13E or MCI13F treatment influences cellular sensitivity to cisplatin was assessed. […] Cisplatin-induced DNA damage is primarily repaired via NER and homologous recombination. […] Initially, a concurrent approach, similar to that described for another RPA SMI, TDRL-505 (1) was used. Briefly, A549 cells were treated for 48 hours with MCI13E, cisplatin, or combination treatment, with viability determined via crystal violet staining. […] Next, a sequential treatment protocol was used, first treating cells with cisplatin for 24 hours, then adding the SMI and incubating for an additional 24 hours.
Combination Index—Studies Combination index studies, performed with combination SMI and cisplatin treatment, were used to determine the level of synergy or antagonism between the two compounds. Referring now to FIG. 19A, a schematic illustrating Sequential treatment with cisplatin and MCI13E, and FIG. 19B, a schematic illustrating concurrent treatment with cisplatin and MCI13E. Cells received the same concentration of cisplatin or MCI13E but the time the cells were treated with cisplatin varied whereas treatment time with MCI remained the same between the two treatment methods.
Briefly, A549 cells were plated as described above in 24-well dishes (5×10^4 cells per well) and treated either concurrently or sequentially with single agent cisplatin or MCI treatment or with combination treatments. […] Following 48 hours of total treatment cells were analyzed for viability using the crystal violet assay described above and combination index values were calculated based on the Chou and Talalay method (15) as we have previously described (1,23).

The next test relates to A549 cell lines. Nature of the test: Combination with ionizing radiation, A549. The conditions noted are these: A549, data not shown.

Consider `CC1(C)C2CCC1(C)C(OC(=O)CI)C2` (racemic) [MCI13F, (+/−)-Isobornyl iodoacetate], for which the pIC50 in the test with H460 cells (48 hours after exposing the cells) is 5.40; in the test with H460 cells (48 hours, crystal violet), roughly 5.30. In addition, the “p53 serine-15 phosphorylation, single agent” value with p53 was “minimal single-agent effects on p53 phosphorylation”. In addition, the “Interaction with cisplatin, sequential treatment” value in the test on A549 cells is reported as “synergy with cisplatin at all tested concentrations”. In addition, the “Cell death in combination with ionizing radiation” value in the test with A549 cell lines is given as “at best, an additive increase in cell death”.
In the test with H460 cells (48 hours, crystal violet), `CC1(C)C2CCC1(C)C(OC(=O)CBr)C2` (racemic) [MCI13E, (+/−)-Isobornyl bromoacetate] had a pIC50 of roughly 5.30. Further, the “p53 serine-15 phosphorylation, single agent” value in the test with p53 is “minimal single-agent effects on p53 phosphorylation”. For the same compound, the “Interaction with cisplatin, concurrent treatment” value in the test on A549 cells (A549, 48 hours together) is given as “antagonistic effect”. Moreover, in the test on A549 cells, the “Interaction with cisplatin, sequential treatment” value is on record as “synergizing with cisplatin at higher dosing concentrations”. In the test with A549 cell lines, the “Cell death in combination with ionizing radiation” value is “at best, an additive increase in cell death”.
